Experimental data: US6569878B1, “Substituted 4-amino-thiazol-2-yl compounds as cyclin-dependent kinase inhibitors” (Agouron Pharmaceuticals Inc., priority 1997, dated 2003)
Where two headings read alike, the source gives them in different places.

What was measured:
[1] = target: T1, complex of human CDK4 and cyclin D3 (Homo sapiens, UniProt P11802); assay: Inhibition of CDK4/cyclin D retinoblastoma kinase activity (D-type cyclin is D3); format: biochemical; conditions: superscript a: D-type cyclin is D3; apparent Ki; read-out: Ki CDK 4/D
T1 construct: made in house; host or cells: insect cells, co-infected with baculovirus
Protocol: Cyclin-dependent kinase activity was measured by quantifying the enzyme-catalyzed, time-dependent incorporation of radioactive phosphate from [^32P]ATP or [^33P]ATP into a protein substrate. […] Reactions were initiated with enzyme, incubated at 30° C., and terminated after 20 minutes by the addition of ethylenediaminetetraacetic acid (EDTA) to 250 mM. […] Radioactivity was quantified by exposing the dried membranes to a phosphorimager.
(§1) Apparent Ki values were measured by assaying enzyme activity in the presence of different inhibitor compound concentrations and subtracting the background radioactivity measured in the absence of enzyme. The kinetic parameters (kcat, Km for ATP) were measured for each enzyme under the usual assay conditions by determining the dependence of initial rates on ATP concentration. Inhibition data were fit to an equation for competitive inhibition using Kaleidagraph (Synergy Software), or were fit to an equation for competitive tight-binding inhibition using the software KineTic (BioKin, Ltd.).
Phosphorylated Rb substrate was captured by microfiltration on a nitrocellulose membrane and quantified using a phosphorimager as described above. For measurement of tight-binding inhibitors, the enzyme complex concentration was lowered to 5 nM, and the assay duration was extended to 60 minutes, during which the time-dependence of product formation was linear.

[2] = tested on: U2-OS; assay: Inhibition of cell growth, MTT assay, U2-OS; format: cell-based; conditions: for IC50 / IC90: Homo sapiens, U2OS; for % inhibition of growth in parentheses after >25: concentration not given
Protocol: (§2) The water-insoluble purple formazan product was then detected spectrophotometrically. […] Plates were incubated for four hours before addition of inhibitor compounds. Different concentrations of inhibitor compounds were added in 0.5% (v/v) dimethylsulfoxide (15 μL/well), and cells were incubated at 37° C. (5% CO2) for four to six days (depending on cell type). At the end of the incubation, MTT was added to a final concentration of 0.2 mg/mL, and cells were incubated for 4 hours more at 37° C. After centrifugation of the plates and removal of medium, the absorbance of the formazan (solubilized in dimethylsulfoxide) was measured at 540 nm.

[3] = target: T2, CDK2/cyclin A (Homo sapiens, UniProt P24941); assay: Inhibition of CDK2/cyclin A retinoblastoma kinase activity; format: biochemical; conditions: read-out: Ki CDK 2/A
T2 construct: made in house; host or cells: CDK2: insect cells (baculovirus); cyclin A: E. coli, then limited proteolysis
Protocol: Cyclin-dependent kinase activity was measured by quantifying the enzyme-catalyzed, time-dependent incorporation of radioactive phosphate from [^32P]ATP or [^33P]ATP into a protein substrate. Unless noted otherwise, assays were performed in 96-well plates in a total volume of 50 μL, in the presence of 10 mM HEPES (N-[2-hydroxyethyl]piperazine-N′-[2-ethanesulfonic acid]) (pH 7.4), 10 mM MgCl2, 25 μM adenosine triphosphate (ATP), 1 mg/mL ovalbumin, 5 μg/mL leupeptin, 1 mM dithiothreitol, 10 mM β-glycerophosphate, 0.1 mM sodium vanadate, 1 mM sodium fluoride, 2.5 mM ethylene glycol-bis(β-aminoethyl ether)-N,N,N′N′-tetraacetic acid (EGTA), 2% (v/v) dimethylsulfoxide, and 0.03-0.4 μCi [^32/33P]ATP per reaction. Reactions were initiated with enzyme, incubated at 30° C., and terminated after 20 minutes by the addition of ethylenediaminetetraacetic acid (EDTA) to 250 mM. The phosphorylated substrate was then captured on a nitrocellulose or phosphocellulose membrane using a 96-well filtration manifold, and unincorporated radioactivity was removed by repeated washing with 0.85% phosphoric acid. Radioactivity was quantified by exposing the dried membranes to a phosphorimager.
as §1
CDK2 was purified using published methodology (Rosenblatt et al., “Purification and Crystallization of Human Cyclin-dependent Kinase 2,” J. Mol. Biol., vol. 230, 1993, pp. 1317-1319) from insect cells that had been infected with a baculovirus expression vector. […] Purified, proteolyzed cyclin A was included in the assay at a three- to five-fold molar excess to CDK2. Alternatively, a complex of CDK2 and proteolyzed cyclin A was prepared and purified by gel filtration. The substrate for this assay was the same Rb substrate fragment used for the CDK4 assays, and the methodology of the CDK2/cyclin A and the CDK4/cyclin D3 assays was essentially the same, except that CDK2 was present at 150 nM or 5 nM. Ki values were measured as described above.

[4] = tested on: Saos-2; assay: Inhibition of cell growth, MTT assay, Saos-2; format: cell-based; conditions: Saos-2, MTT assay; for IC50 / IC90: Homo sapiens
Protocol: as §2

[5] = tested on: HCT116; assay: Inhibition of cell growth, MTT assay, HCT116; format: cell-based, human; conditions: Homo sapiens, HCT-116
Protocol: as §2

T1 sequence (P11802 whole entry): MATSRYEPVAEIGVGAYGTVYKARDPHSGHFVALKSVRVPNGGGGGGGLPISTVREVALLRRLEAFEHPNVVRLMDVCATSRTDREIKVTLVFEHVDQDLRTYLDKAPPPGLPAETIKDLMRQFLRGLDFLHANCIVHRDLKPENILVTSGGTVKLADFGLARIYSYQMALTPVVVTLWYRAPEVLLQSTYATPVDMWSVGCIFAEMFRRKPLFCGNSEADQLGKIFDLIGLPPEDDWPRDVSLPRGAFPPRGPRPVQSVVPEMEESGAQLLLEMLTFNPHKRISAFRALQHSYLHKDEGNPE
T1 sequence (P30281 whole entry partner): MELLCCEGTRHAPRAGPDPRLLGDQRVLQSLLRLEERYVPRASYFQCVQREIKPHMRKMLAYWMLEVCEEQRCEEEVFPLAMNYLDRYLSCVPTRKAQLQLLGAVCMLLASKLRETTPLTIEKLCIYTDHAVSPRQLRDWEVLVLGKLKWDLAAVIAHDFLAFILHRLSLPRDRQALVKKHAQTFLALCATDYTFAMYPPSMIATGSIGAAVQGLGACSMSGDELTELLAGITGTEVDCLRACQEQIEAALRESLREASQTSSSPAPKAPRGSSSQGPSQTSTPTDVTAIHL

Row | Structure (SMILES) | Ki [1] | IC50 [2] | IC90 [2] | Ki [3] | IC50 [4] | IC90 [4] | IC50 [5] | IC90 [5] | % inhibition of growth in parentheses after >25 [2] | % inhibition of growth in parentheses after >25 ([4]; concentration not given) | Ki ([3]; μM)
1 | Nc1nc(Nc2ccc(S(N)(=O)=O)cc2)sc1C(=O)c1c(Cl)cc(Cl)cc1Cl [C(107), 4-[4-Amino-5-(2,4,6-trichloro-benzoyl)-thiazol-2-yl-amino]-benzenesulfonamide] | 0.0138 µM | 7.9 µM | 12 µM | 0.0125 µM | 5.7 µM | 12 µM | 2.5 µM | 7 µM | – | – | –
2 | Cc1ccc(C(=O)c2sc(Nc3ccc(S(N)(=O)=O)cc3)nc2N)c(C)c1 [C(35), 4-[4-Amino-5-(2,4-dimethyl-benzoyl)-thiazol-2-ylamino]-benzenesulfonamide] | 0.011 µM | 12 µM | 22 µM | 0.023 µM | 8 µM | 20 µM | 9 µM | 19 µM | – | – | –
3 | Cc1cc(N)sc1C(=O)c1sc(Nc2ccc(S(N)(=O)=O)cc2)nc1N [D(5)] | 0.159 µM | > 25 µM | – | 0.233 µM | 17 µM | 25 µM | 1.9 µM | 5 µM | – | – | –
4 | COc1ccc(Nc2nc(N)c(C(=O)c3ccccc3I)s2)cc1 [C(12), [4-Amino-2-(4-methoxy-phenylamino)-thiazol-5-yl]-(2-iodo-phenyl)-methanone] | 0.027 µM | 1.9 µM | 6 µM | 0.67 µM | 2.1 µM | 4.8 µM | 2 µM | 5 µM | – | – | –
5 | Cc1ccsc1C(=O)c1sc(Nc2ccc3nc[nH]c3c2)nc1N [C(19), [4-Amino-2-(1H-benzoimidazol-6-ylamino)-thiazol-5-yl]-(3-methyl-thiophen-2-yl)-methanone] | 0.0158 µM | 15 µM | > 25 µM | 0.277 µM | 7 µM | 18 µM | 9 µM | 23 µM | 77% | – | –
6 | NC(=O)N1CCN(c2ccc(Nc3nc(N)c(C(=O)c4c(F)cccc4F)s3)cc2)CC1 [C(123), {4-Amino-2-[4-(4-carbamoyl-piperazin-1-yl)-phenylamino]-thiazol-5-yl}-(2,6-difluoro-phenyl)-methanone] | 0.0154 µM | 7.1 µM | 12 µM | 0.164 µM | 2.9 µM | 5.7 µM | 2.7 µM | 7 µM | – | – | –
7 | CC(=O)N1CCN(c2ccc(Nc3nc(N)c(C(=O)c4c(F)cccc4F)s3)cc2)CC1 [C(111), 2-[4-(1-Acetyl-piperazin-4-yl)-phenylamino]-4-amino-thiazol-5-yl-(2,6-difluorophenyl)-methanone] | 0.021 µM | 3 µM | 5.5 µM | 0.216 µM | 3.8 µM | 5.9 µM | 1.7 µM | 3.8 µM | – | – | –
8 | Cc1ncsc1C(=O)c1sc(Nc2ccc(S(N)(=O)=O)cc2)nc1N [C(47), 4-[4-Amino-5-(4-methyl-thiazole-5-carbonyl)-thiazol-2-ylamino]-benzenesulfonamide] | 0.03 µM | 10 µM | 20 µM | 0.026 µM | 2.5 µM | 5.1 µM | 4.2 µM | 7.8 µM | – | – | –
9 | Nc1nc(Nc2ccc(S(N)(=O)=O)cc2)sc1C(=O)c1c(Cl)cc(C(F)(F)F)cc1Cl [C(38), 4-[4-Amino-5-(2,6-dichloro-4-trifluoromethyl-benzoyl)-thiazol-2-ylamino]-benzenesulfonamide] | 0.025 µM | 11 µM | > 25 µM | 0.039 µM | 3 µM | > 25 µM | 4.3 µM | 19 µM | 87% | 80% | –
10 | Cc1ccc(C(=O)c2sc(Nc3ccc4nc[nH]c4c3)nc2N)c(C)c1 [C(20), [4-Amino-2-(1H-benzoimidazol-6-ylamino)-thiazol-5-yl]-(2,4-dimethyl-phenyl)-methanone] | 0.022 µM | 6.5 µM | > 25 µM | 0.145 µM | 4.9 µM | 13 µM | 6.1 µM | 25 µM | (74%) | – | –
11 | Cc1cc(C)c(C(=O)c2sc(Nc3ccc4nc[nH]c4c3)nc2N)c(C)c1 [C(57), [4-Amino-2-(1H-benzoimidazol-6-ylamino)-thiazol-5-yl]-(2,4,6-trimethyl-phenyl)-methanone] | 0.03 µM | – | – | 0.259 µM | – | – | – | – | – | – | –
12 | Nc1nc(Nc2ccc3nc[nH]c3c2)sc1C(=O)c1cc(Cl)sc1Cl [C(93), [4-Amino-2-(1H-benzoimidazol-6-ylamino)-thiazol-5-yl]-(2,5-dichloro-thiophen-3-yl)-methanone] | 0.285 µM | – | – | 1.04 µM | – | – | – | – | – | – | –
13 | Nc1nc(Nc2ccc(-c3ncc[nH]3)cc2)sc1C(=O)c1c(Cl)cc(C(F)(F)F)cc1Cl [C(53), {4-Amino-2-[4-(1H-imidazol-2-yl)-phenylamino]-thiazol-5-yl}-(2,6-dichloro-4-trifluoromethyl-phenyl)-methanone] | 0.085 µM | – | – | 0.18 µM | – | – | – | – | – | – | –
14 | Cc1c(C(=O)c2sc(Nc3ccc(S(N)(=O)=O)cc3)nc2N)ncn1C [C(76), 4-[4-Amino-5-(1,5-dimethyl-1H-imidazole-4-carbonyl)-thiazol-2-ylamino]-benzenesulfonamide] | 2 µM | – | – | 0.507 µM | – | – | – | – | – | – | –
15 | CC(=O)N1CCN(c2ccc(Nc3nc(N)c(C(=O)c4cc(C)sc4C)s3)cc2)CC1 [C(112), 2-[4-(1-Acetyl-piperazin-4-yl)-phenylamino]-4-amino-thiazol-5-yl-(2,5-dimethyl-thiophen-3-yl)-methanone] | 0.023 µM | – | – | 0.408 µM | – | – | – | – | – | – | –
16 | Cc1ccc(C(=O)c2sc(Nc3ccc(-n4ccnc4)cc3)nc2N)c(C)c1 [C(41), [4-Amino-2-(4-imidazol-1-yl-phenylamino)-thiazol-5-yl]-(2,4-dimethyl-phenyl)-methanone] | 0.35 µM | – | – | 0.336 µM | – | – | – | – | – | – | –
17 | CCOC(=O)c1ccc(Nc2nc(N)c(C(=O)c3c(Cl)cccc3Cl)s2)cc1 [C(56), Ethyl 4-[4-Amino-5-(2,6-dichloro-benzoyl)-thiazol-2-ylamino]-benzoate] | 0.195 µM | – | – | 1.02 µM | – | – | – | – | – | – | –
18 | Cc1cccc(-c2ccccc2)c1C(=O)c1sc(Nc2ccc3nc[nH]c3c2)nc1N [C(67), [4-Amino-2-(1H-benzoimidazol-6-ylamino)-thiazol-5-yl]-(3-methyl-biphenyl-2-yl)-methanone] | 3.17 µM | – | – | – | – | – | – | – | – | – | 13.2 µM
19 | COC(=O)c1sc(Nc2ccc3nc[nH]c3c2)nc1N [A(12), 4-Amino-2-(1H-benzoimidazol-6-ylamino)-thiazole-5-carboxylic Acid Methyl Ester] | 9.4 µM | – | – | 4.1 µM | – | – | – | – | – | – | –
20 | Cc1ccc(C)c(C(=O)c2sc(Nc3ccc4nc[nH]c4c3)nc2N)c1C [C(58), [4-Amino-2-(1H-benzoimidazol-6-ylamino)-thiazol-5-yl]-(2,3,6-trimethyl-phenyl)-methanone] | 0.034 µM | – | – | 0.306 µM | – | – | – | – | – | – | –
21 | CCOC(=O)c1ccc(C(=O)c2sc(Nc3ccc(S(N)(=O)=O)cc3)nc2N)cc1 [C(34), Ethyl 4-[4-Amino-2-(4-sulfamoyl-phenylamino)-thiazole-5-carbonyl]-benzoate] | 0.14 µM | – | – | 0.131 µM | – | – | – | – | – | – | –
